# According to PubChem BioAssay (NCI):
#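 The compound was tested at five concentrations on cells cultured in 96-well plates, with a 48-hour exposure period. TGI: concentration producing complete growth inhibition.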
# What was measured:
# Test in all cases: NCI anticancer screen, dose series, 48 h
# 786-0 renal = test system: 786-0 renal
# A498 renal = test system: A498 renal
# A549 NSCLC = test system: A549 NSCLC
# ACHN renal = test system: ACHN renal
# CAKI-1 renal = test system: CAKI-1 renal
# CCRF-CEM leukemia = test system: CCRF-CEM leukemia
# COLO 205 colon = test system: COLO 205 colon
# DLD-1 colon = test system: DLD-1 colon
# DMS 114 small cell lung = test system: DMS 114 small cell lung
# DMS 273 small cell lung = test system: DMS 273 small cell lung
# EKVX NSCLC = test system: EKVX NSCLC
# HCC-2998 colon = test system: HCC-2998 colon
# HCT-116 colon = test system: HCT-116 colon
# HCT-15 colon = test system: HCT-15 colon
# HL-60(TB) leukemia = test system: HL-60(TB) leukemia
# HOP-18 NSCLC = test system: HOP-18 NSCLC
# HOP-62 NSCLC = test system: HOP-62 NSCLC
# HOP-92 NSCLC = test system: HOP-92 NSCLC
# HT29 colon = test system: HT29 colon
# IGROV1 ovarian = test system: IGROV1 ovarian
# K-562 leukemia = test system: K-562 leukemia
# KM12 colon = test system: KM12 colon
# KM20L2 colon = test system: KM20L2 colon
# LOX IMVI melanoma = test system: LOX IMVI melanoma
# LXFL 529 NSCLC = test system: LXFL 529 NSCLC
# M14 melanoma = test system: M14 melanoma
# MALME-3M melanoma = test system: MALME-3M melanoma
# MOLT-4 leukemia = test system: MOLT-4 leukemia
# NCI-H226 lung = test system: NCI-H226 lung
# NCI-H23 lung = test system: NCI-H23 lung
# NCI-H460 lung = test system: NCI-H460 lung
# NCI-H522 lung = test system: NCI-H522 lung
# OVCAR-3 ovarian = test system: OVCAR-3 ovarian
# OVCAR-4 ovarian = test system: OVCAR-4 ovarian
# OVCAR-5 ovarian = test system: OVCAR-5 ovarian
# OVCAR-8 ovarian = test system: OVCAR-8 ovarian
# RPMI-8226 leukemia = test system: RPMI-8226 leukemia
# RXF 393 renal = test system: RXF 393 renal
# RXF-631 renal = test system: RXF-631 renal
# SF-268 CNS = test system: SF-268 CNS
# SF-295 CNS = test system: SF-295 CNS
# SF-539 CNS = test system: SF-539 CNS
# SK-MEL-2 melanoma = test system: SK-MEL-2 melanoma
# SK-MEL-28 melanoma = test system: SK-MEL-28 melanoma
# SK-MEL-5 melanoma = test system: SK-MEL-5 melanoma
# SK-OV-3 ovarian = test system: SK-OV-3 ovarian
# SN12C renal = test system: SN12C renal
# SNB-19 CNS = test system: SNB-19 CNS
# SNB-75 CNS = test system: SNB-75 CNS
# SNB-78 CNS = test system: SNB-78 CNS
# SR leukemia = test system: SR leukemia
# SW-620 colon = test system: SW-620 colon
# TK-10 renal = test system: TK-10 renal
# U251 CNS = test system: U251 CNS
# UACC-257 melanoma = test system: UACC-257 melanoma
# UACC-62 melanoma = test system: UACC-62 melanoma
# UO-31 renal = test system: UO-31 renal
# XF 498 CNS = test system: XF 498 CNS
# M19-MEL melanoma = test system: M19-MEL melanoma
structure (smiles),measurement,setting,value
C=CCN=C1N=C(C)C(C(=O)OCC)S1 (stereo not given),TGI,786-0 renal,> 100 µM
same,TGI,A498 renal,> 100 µM
same,TGI,A549 NSCLC,> 100 µM
same,TGI,ACHN renal,> 100 µM
same,TGI,CAKI-1 renal,> 100 µM
same,TGI,CCRF-CEM leukemia,> 100 µM
same,TGI,COLO 205 colon,> 100 µM
same,TGI,DLD-1 colon,> 100 µM
same,TGI,DMS 114 small cell lung,> 100 µM
same,TGI,DMS 273 small cell lung,> 100 µM
same,TGI,EKVX NSCLC,> 100 µM
same,TGI,HCC-2998 colon,> 100 µM
same,TGI,HCT-116 colon,> 100 µM
same,TGI,HCT-15 colon,> 100 µM
same,TGI,HL-60(TB) leukemia,> 100 µM
same,TGI,HOP-18 NSCLC,> 100 µM
same,TGI,HOP-62 NSCLC,> 100 µM
same,TGI,HOP-92 NSCLC,> 100 µM
same,TGI,HT29 colon,> 100 µM
same,TGI,IGROV1 ovarian,> 100 µM
same,TGI,K-562 leukemia,> 100 µM
same,TGI,KM12 colon,> 100 µM
same,TGI,KM20L2 colon,> 100 µM
same,TGI,LOX IMVI melanoma,> 100 µM
same,TGI,LXFL 529 NSCLC,> 100 µM
same,TGI,M14 melanoma,> 100 µM
same,TGI,MALME-3M melanoma,> 100 µM
same,TGI,MOLT-4 leukemia,> 100 µM
same,TGI,NCI-H226 lung,> 100 µM
same,TGI,NCI-H23 lung,> 100 µM
same,TGI,NCI-H460 lung,> 100 µM
same,TGI,NCI-H522 lung,> 100 µM
same,TGI,OVCAR-3 ovarian,> 100 µM
same,TGI,OVCAR-4 ovarian,> 100 µM
same,TGI,OVCAR-5 ovarian,> 100 µM
same,TGI,OVCAR-8 ovarian,> 100 µM
same,TGI,RPMI-8226 leukemia,> 100 µM
same,TGI,RXF 393 renal,> 100 µM
same,TGI,RXF-631 renal,> 100 µM
same,TGI,SF-268 CNS,> 100 µM
same,TGI,SF-295 CNS,> 100 µM
same,TGI,SF-539 CNS,> 100 µM
same,TGI,SK-MEL-2 melanoma,> 100 µM
same,TGI,SK-MEL-28 melanoma,> 100 µM
same,TGI,SK-MEL-5 melanoma,> 100 µM
same,TGI,SK-OV-3 ovarian,> 100 µM
same,TGI,SN12C renal,> 100 µM
same,TGI,SNB-19 CNS,> 100 µM
same,TGI,SNB-75 CNS,> 100 µM
same,TGI,SNB-78 CNS,> 100 µM
same,TGI,SR leukemia,> 100 µM
same,TGI,SW-620 colon,> 100 µM
same,TGI,TK-10 renal,> 100 µM
same,TGI,U251 CNS,> 100 µM
same,TGI,UACC-257 melanoma,> 100 µM
same,TGI,UACC-62 melanoma,> 100 µM
same,TGI,UO-31 renal,> 100 µM
same,TGI,XF 498 CNS,> 100 µM
CCOC(=O)/C=C(\C)c1ccc(Cl)cc1,TGI,A498 renal,> 100 µM
same,TGI,A549 NSCLC,> 100 µM
same,TGI,ACHN renal,> 100 µM
same,TGI,CAKI-1 renal,> 100 µM
same,TGI,CCRF-CEM leukemia,> 100 µM
same,TGI,COLO 205 colon,> 100 µM
same,TGI,DLD-1 colon,> 100 µM
same,TGI,DMS 114 small cell lung,> 100 µM
same,TGI,DMS 273 small cell lung,> 100 µM
same,TGI,EKVX NSCLC,> 100 µM
same,TGI,HCC-2998 colon,> 100 µM
same,TGI,HCT-116 colon,> 100 µM
same,TGI,HCT-15 colon,> 100 µM
same,TGI,HL-60(TB) leukemia,> 100 µM
same,TGI,HOP-18 NSCLC,> 100 µM
same,TGI,HOP-92 NSCLC,> 100 µM
same,TGI,HT29 colon,> 100 µM
same,TGI,IGROV1 ovarian,> 100 µM
same,TGI,K-562 leukemia,> 100 µM
same,TGI,KM12 colon,> 100 µM
same,TGI,KM20L2 colon,> 100 µM
same,TGI,LOX IMVI melanoma,> 100 µM
same,TGI,LXFL 529 NSCLC,> 100 µM
same,TGI,M14 melanoma,> 100 µM
same,TGI,MALME-3M melanoma,> 100 µM
same,TGI,MOLT-4 leukemia,> 100 µM
same,TGI,NCI-H226 lung,98.4 µM
same,TGI,NCI-H23 lung,> 100 µM
same,TGI,NCI-H460 lung,> 100 µM
same,TGI,OVCAR-4 ovarian,> 100 µM
same,TGI,OVCAR-5 ovarian,> 100 µM
same,TGI,OVCAR-8 ovarian,> 100 µM
same,TGI,RPMI-8226 leukemia,> 100 µM
same,TGI,RXF 393 renal,> 100 µM
same,TGI,RXF-631 renal,> 100 µM
same,TGI,SF-268 CNS,> 100 µM
same,TGI,SF-295 CNS,> 100 µM
same,TGI,SF-539 CNS,> 100 µM
same,TGI,SK-MEL-2 melanoma,> 100 µM
same,TGI,SK-MEL-28 melanoma,> 100 µM
same,TGI,SN12C renal,> 100 µM
same,TGI,SNB-19 CNS,> 100 µM
same,TGI,SNB-75 CNS,> 100 µM
same,TGI,SNB-78 CNS,> 100 µM
same,TGI,SR leukemia,> 100 µM
same,TGI,SW-620 colon,> 100 µM
same,TGI,TK-10 renal,> 100 µM
same,TGI,U251 CNS,> 100 µM
same,TGI,UACC-257 melanoma,> 100 µM
same,TGI,UO-31 renal,> 100 µM
same,TGI,XF 498 CNS,> 100 µM
CCCCNC(=O)NNC(=O)c1cc(/C=C/c2cccc([N+](=O)[O-])c2)ncn1,TGI,786-0 renal,> 100 µM
same,TGI,A498 renal,> 100 µM
same,TGI,A549 NSCLC,> 100 µM
same,TGI,ACHN renal,> 100 µM
same,TGI,CAKI-1 renal,> 100 µM
same,TGI,CCRF-CEM leukemia,> 100 µM
same,TGI,COLO 205 colon,> 100 µM
same,TGI,DLD-1 colon,> 100 µM
same,TGI,DMS 114 small cell lung,> 100 µM
same,TGI,DMS 273 small cell lung,> 100 µM
same,TGI,EKVX NSCLC,> 100 µM
same,TGI,HCC-2998 colon,> 100 µM
same,TGI,HCT-116 colon,> 100 µM
same,TGI,HCT-15 colon,> 100 µM
same,TGI,HL-60(TB) leukemia,> 100 µM
same,TGI,HOP-18 NSCLC,> 100 µM
same,TGI,HOP-62 NSCLC,> 100 µM
same,TGI,HOP-92 NSCLC,> 100 µM
same,TGI,HT29 colon,> 100 µM
same,TGI,IGROV1 ovarian,> 100 µM
same,TGI,K-562 leukemia,> 100 µM
same,TGI,KM12 colon,> 100 µM
same,TGI,KM20L2 colon,> 100 µM
same,TGI,LOX IMVI melanoma,> 100 µM
same,TGI,M14 melanoma,> 100 µM
same,TGI,M19-MEL melanoma,> 100 µM
same,TGI,MALME-3M melanoma,> 100 µM
same,TGI,MOLT-4 leukemia,> 100 µM
same,TGI,NCI-H226 lung,> 100 µM
same,TGI,NCI-H23 lung,> 100 µM
same,TGI,NCI-H460 lung,> 100 µM
same,TGI,NCI-H522 lung,> 100 µM
same,TGI,OVCAR-3 ovarian,> 100 µM
same,TGI,OVCAR-5 ovarian,> 100 µM
same,TGI,OVCAR-8 ovarian,> 100 µM
same,TGI,RPMI-8226 leukemia,59.8 µM
same,TGI,RXF 393 renal,> 100 µM
same,TGI,RXF-631 renal,> 100 µM
same,TGI,SF-268 CNS,> 100 µM
same,TGI,SF-295 CNS,> 100 µM
same,TGI,SK-MEL-2 melanoma,> 100 µM
same,TGI,SK-MEL-28 melanoma,> 100 µM
same,TGI,SK-MEL-5 melanoma,> 100 µM
same,TGI,SK-OV-3 ovarian,> 100 µM
same,TGI,SN12C renal,> 100 µM
same,TGI,SNB-19 CNS,> 100 µM
same,TGI,SNB-75 CNS,> 100 µM
same,TGI,SNB-78 CNS,> 100 µM
same,TGI,SR leukemia,> 100 µM
same,TGI,SW-620 colon,33.7 µM
same,TGI,TK-10 renal,> 100 µM
same,TGI,U251 CNS,44.8 µM
same,TGI,UACC-257 melanoma,> 100 µM
same,TGI,UACC-62 melanoma,> 100 µM
same,TGI,UO-31 renal,> 100 µM
same,TGI,XF 498 CNS,> 100 µM
